From US11555055B2, “Peptide inhibitors of insulin-degrading enzyme” (The Regents of the University of California, priority 2017, dated 2023)
Entries after “also recorded” stand apart in the source; their conditions may differ. Where two headings read alike, the source gives them in different places. Where a SMILES comes first, the peptide text is derived from it. Bridges are numbered along the chain shown (N, C = ends).

Assays:
IDE [1] = molecular target: T1, IDE (Homo sapiens, UniProt P14735); experiment: IDE protease activity assay, insulin degradation quantified by ELISA; format: biochemical
T1 construct: made in house; host or cells: bacteria
T1 sequence (P14735 1-1019): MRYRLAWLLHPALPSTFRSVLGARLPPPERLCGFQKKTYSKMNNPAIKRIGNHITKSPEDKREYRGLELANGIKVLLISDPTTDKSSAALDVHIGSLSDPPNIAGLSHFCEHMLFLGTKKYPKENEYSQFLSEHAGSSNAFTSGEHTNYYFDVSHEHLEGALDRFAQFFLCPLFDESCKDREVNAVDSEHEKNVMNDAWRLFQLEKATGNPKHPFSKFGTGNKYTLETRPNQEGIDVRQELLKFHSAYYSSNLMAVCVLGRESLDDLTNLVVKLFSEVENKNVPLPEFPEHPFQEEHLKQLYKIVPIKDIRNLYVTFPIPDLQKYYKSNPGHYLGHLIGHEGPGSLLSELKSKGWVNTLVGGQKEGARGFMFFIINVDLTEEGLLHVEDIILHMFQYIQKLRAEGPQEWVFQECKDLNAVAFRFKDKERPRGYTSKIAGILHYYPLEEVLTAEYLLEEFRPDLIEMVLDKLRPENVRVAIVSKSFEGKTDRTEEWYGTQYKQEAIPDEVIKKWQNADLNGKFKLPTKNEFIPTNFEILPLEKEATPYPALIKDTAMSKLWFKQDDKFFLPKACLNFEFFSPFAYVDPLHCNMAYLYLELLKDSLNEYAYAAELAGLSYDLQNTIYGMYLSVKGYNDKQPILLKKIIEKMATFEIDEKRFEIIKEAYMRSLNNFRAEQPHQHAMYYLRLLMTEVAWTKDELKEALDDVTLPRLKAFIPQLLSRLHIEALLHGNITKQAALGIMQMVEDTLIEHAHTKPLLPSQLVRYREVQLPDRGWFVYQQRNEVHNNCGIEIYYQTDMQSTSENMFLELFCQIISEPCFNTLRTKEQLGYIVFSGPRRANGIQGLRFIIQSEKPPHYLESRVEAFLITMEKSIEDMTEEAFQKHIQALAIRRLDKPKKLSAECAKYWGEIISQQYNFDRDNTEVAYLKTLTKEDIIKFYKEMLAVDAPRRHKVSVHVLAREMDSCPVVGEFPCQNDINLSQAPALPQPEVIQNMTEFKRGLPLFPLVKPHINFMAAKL
Procedure: To assess the extent to which these peptide sequences inhibit IDE, we quantified their potency in protease activity assays using recombinant human IDE and two different substrates: FRET1, a fluorogenic peptide (45), and recombinant human insulin.
(§1) Degradation Assays—IDE activity was quantified by monitoring the degradation of (7-methoxycoumarin-4-yl)acetic acid-[…](2,4-dinitrophenyl) (FRET1, 5 μM) (49,55), fluoresceinated and biotinylated amyloid β-protein (FAβB; 500 nM) or recombinant human insulin (50 nM) in PBS supplemented with 0.05% BSA. FRET1 degradation was measured by changes in fluorescence (λex=340 nm, λem=420 nm); FAβB degradation was monitored by fluorescence polarization (λex=488 nm, λem=525 nm), as described (56); and insulin degradation was quantified by ELISA. In vitro activity assays incorporated recombinant human IDE (1 nM) purified from bacteria (35). For quantitation of insulin degradation in primary murine skin fibroblasts, cells (1×10^5/well) were plated in 96-well plates and maintained in DMEM supplemented with 10% fetal bovine serum (FBS), 2 mM glutamine, penicillin and streptomycin. After addition of insulin (10 nM or 100 nM), samples of conditioned medium were removed daily and quickly frozen, then insulin levels were quantified in parallel by ELISA according to manufacturer's recommendations (Crystal Chem, Downers Grove, Ill., USA). Assessment of the activity of P12-3A against a variety of matrix-metalloproteases was conducted using the Matrix Metalloproteinase (MMP) Inhibitor Profiling Kit, Fluorometric RED (Enzo Life Sciences, Inc., Farmingdale, N.Y., USA) according to manufacturer's recommendations using the broad-spectrum MMP inhibitor, NNGH, as a positive control.

IDE [2] = molecular target: T1, IDE; experiment: IDE activity assay, FAβB (amyloid β-protein) degradation by fluorescence polarization; format: biochemical; details: P12-3A 100 μM
Procedure: as §1, with “Assessment of the activity of P12-3A against a variety of matrix-metalloproteases was conducted using the Matrix Metalloproteinase (MMP) Inhibitor Profiling Kit, Fluorometric RED (Enzo Life Sciences, Inc., Farmingdale, N.Y., USA) according to manufacturer's recommendations using the broad-spectrum MMP inhibitor, NNGH, as a positive control.” left out

[3] = tested on: primary murine skin fibroblasts; experiment: Insulin degradation in cultured skin fibroblasts, insulin in medium by ELISA; format: cell-based, mouse; details: 100 μM P12-3A, 10 nM insulin, up to day 4, logarithmically growing cells
Procedure: (§2) FIG. 4A-F. Effects of P12-3A on cultured skin cells. A, Insulin concentrations as a function of time in logarithmically growing primary murine skin fibroblasts in the absence or presence of P12-3A (100 μM). […] Data are mean±SEM of 4 independent replications. *P<0.05, **P<0.01. B, Proliferation of cells in the absence or presence of P12-3A (100 μM). […] C,D,E, P12-3A (100 μM) potentiates insulin-induced collagen production in skin fibroblasts. Collagen production was assessed by COL1A1 mRNA levels (C), levels of hydroxyproline secreted into the medium (D), and cell-associated mature alpha-1 type I collagen levels detected by Western blotting (E). […] Migration of HaCaT cells 48 h after induction of a scratch wound in the presence of the indicated quantities of insulin and/or P12-3A (100 μM). […]
(§3) Insulin promotes wound healing and overall skin health by affecting a number of processes, including cell proliferation (2,3), cell migration (5,6), and the production and secretion of ECM components, particularly type I collagen (7-13). We therefore assessed the ability of P12-3A to influence these processes in cultured skin fibroblasts and keratinocytes. To that end, primary mouse skin fibroblasts were grown for 4 d in multiple concentrations of insulin in the presence or absence of P12-3A, and insulin concentration over time was monitored by ELISA. […]

[4] = tested on: primary murine skin fibroblasts; experiment: Cell proliferation (CellTiter 96 AQueous); format: cell-based, mouse; details: 100 μM P12-3A, 10 nM insulin; not statistically significant
Procedure: as §2, §3

Question: Which Ki (IDE [1]; deliberately cyclized, highly pure cosmetic-grade P12-3A, n=6, read-out: Ki against insulin degradation) does the source give for `CC(C)C[C@H](NC(=O)[C@H](CO)NC(=O)[C@@H](N)CCC(N)=O)C(=O)N1CCC[C@H]1C(=O)N[C@@H](Cc1c[nH]c2ccccc12)C(=O)N[C@H]1CSSC[C@@H](C(=O)N[C@H](C(=O)N[C@H](C(N)=O)[C@@H](C)O)C(C)C)NC(=O)[C@H](Cc2c[nH]cn2)NC(=O)[C@@H]2CCCN2C(=O)[C@H](Cc2ccc(O)cc2)NC1=O` [Peptide P12-3A] (H-QSLPWCYPHCVT-NH2; disulfide 6-10 (inferred)) here?
Answer: 2.5 ± 0.31 µM

Question: What about the Ki (IDE [1]; substrate recombinant human insulin, Ki converted from IC50 with the Cheng-Prusoff equation, read-out: Ki Insulin) of the same molecule?
Answer: 4.1 ± 0.3 µM

Question: What about the “inhibition of IDE in selectivity panel” value (IDE [2]) of the same molecule?
Answer: significant inhibition

Question: What about the “insulin levels over time in cell culture” value [3] of the same molecule?
Answer: remain constant

Question: And the cell proliferation [4]?
Answer: modestly increased; also recorded: No significant differences
